The record followed here is US5391540A, “Substituted pyridine compounds” (Rohm and Haas Company, priority 1993, dated 1995).

Test in all cases: Pre-emergent herbicidal activity (Table A)
Holding throughout (assay type): in vivo

For test [1], the system named is Barnyardgrass. To be noted: Echinochloa crus-galli, pre-emergence, Bygr, 11.2 kg/ha, 10-14 days, read-out: herbicidal rating (% inhibition). Here is the method:
(§1) The herbicidal ratings used in Tables A and B were assigned according to a scale based on the percent inhibition of each plant species. The herbicide rating symbols in Tables A and B are defined as follows: […]
(§2) One set of pre-emergent tests was conducted as follows:
(§3) Topsoil was placed in a pan and compacted to a depth of 0.95 to 1.27 cm. from the top of the pan. A predetermined number of seeds of each of several monocotyledonous and dicotyledonous annual plant species and/or vegetative propagules of various perennial plant species were placed on top of the soil. The soil required to level fill a pan after seeding or adding vegetative propagules was weighed into another pan. A known amount of the test compound dissolved or suspended in an organic solvent or water and applied in acetone or water as a carrier was thoroughly mixed with this cover soil, and the herbicide/soil mixture was used as a cover layer for the previously prepared pan.
(§4) The plant species usually regarded as weeds which were utilized in one set of pre-emergent activity tests, the data for which are shown in Table A, are identified by letter headings printed diagonally above the columns according to the following legend: […]

The test system of test [2] is Canada thistle. Particulars: Cirsium arvense, pre-emergence, Cath, 11.2 kg/ha, 10-14 days, read-out: herbicidal rating (% inhibition). Here is the method: as §1, §2, §3, §4
For test [3], the system named is Cocklebur. Particulars: Xanthium strumarium, pre-emergence, Cobu, 11.2 kg/ha, 10-14 days, read-out: herbicidal rating (% inhibition). How it is done: as §1, §2, §3, §4
The subject of test [4] is Common Lambsquarters. Particulars: Chenopodium album, pre-emergence, Colq, 11.2 kg/ha, 10-14 days, read-out: herbicidal rating (% inhibition). Here is the method:
as §1, §2, §3, §4

Test [5] deals with Morningglory. To be noted: Ipomoea, pre-emergence, Mogl, 11.2 kg/ha, 10-14 days, read-out: herbicidal rating (% inhibition). Here is the method: as §1, §2, §3, §4
Test [6] relates to Pennsylvania Smartweed. Particulars: pre-emergence, Pesw, 11.2 kg/ha, 10-14 days, read-out: herbicidal rating (% inhibition). Here is the method: as §1, §2, §3, §4
Test [7] concerns Quackgrass. To be noted: pre-emergence, Rhqg, 11.2 kg/ha, 10-14 days, read-out: herbicidal rating (% inhibition). Here is the method:
as §1, §2, §3, §4

Test [8] has as its system Rhizome Johnsongrass. Particulars: Sorghum halepense, pre-emergence, Rhjg, 11.2 kg/ha, 10-14 days, read-out: herbicidal rating (% inhibition). Here is the method:
as §1, §2, §3, §4

Test [9] relates to Velvetleaf. To be noted: Abutilon theophrasti, pre-emergence, Vele, 11.2 kg/ha, 10-14 days, read-out: herbicidal rating (% inhibition). How it is done: as §1, §2, §3, §4
Test [10] concerns Yellow Nutsedge. Particulars: Cyperus, pre-emergence, Yens, 11.2 kg/ha, 10-14 days, read-out: herbicidal rating (% inhibition). How it is done:
as §1, §2, §3, §4

Test [11] deals with Downy Brome. Particulars: Bromus tectorum, pre-emergence, Dobr, 11.2 kg/ha, 10-14 days, read-out: herbicidal rating (% inhibition). Here is the method: as §1, §2, §3, §4

Turning to `CCOc1nc(C(F)(F)F)c(C(=O)OC)c(CC(C)C)c1C(=O)OC` [Compound 6, 3,5-pyridinedicarboxylic acid, 2-ethoxy-4-(2-methylpropyl)-6-(trifluoromethyl)-, dimethyl ester], the inhibition – broadly, the change of the read-out against control, counted positive when it falls – at 11200 g/ha is 75 to 100% in [1]; 75 to 100% in [2]; 25 to 49% in test [3]; 75 to 100% in test [4]; 75 to 100% in [5]; 75 to 100% in test [6]. In addition, the inhibition at 11200 g/ha is 75 to 100% in test [7], 75 to 100% in test [8], 75 to 100% in test [9] and 25 to 49% in [10].

On to `CCCOc1nc(C(F)(F)F)c(C(=O)OC)c(CC(C)C)c1C(=O)OCC` [Compound 7, 3,5-pyridinedicarboxylic acid, 4-(2-methylpropyl)-2-propyloxy-6-(trifluoromethyl)-,3-ethyl 5-methyl ester], for which the inhibition at 11200 g/ha in test [1] fell in the range of 75 to 100%; in test [2], 0 to 24%; in [3] it was 0 to 24%; in test [4], 75 to 100%; in test [5] it was 0 to 24%; in test [6], 25 to 49%. Further, the inhibition at 11200 g/ha in test [7], in [8], in test [9] and in test [10] was 0 to 24% throughout.

As for `COC(=O)c1c(OC)nc(C(F)(F)F)c(C(=O)OC)c1CC(=O)O` [Compound 13, 3,5-pyridinedicarboxylic acid, 4-(carboxymethyl)-2-methoxy-6-(trifluoromethyl)-, dimethyl ester], the inhibition at 11200 g/ha in [1], in test [2], in test [3], in [4], in test [11] and in test [5] was 0 to 24% each time. The inhibition at 11200 g/ha in test [7], in test [8], in test [9] and in test [10] was 0 to 24% in each case.

With `COC(=O)c1c(C(F)(F)F)nc(OC)c(N)c1CC(C)C` [Compound 32, 3-pyridinecarboxylic acid, 5-amino-6-methoxy-4-(2-methylpropyl)-2-(trifluoromethyl)-, methyl ester], the inhibition at 11200 g/ha in test [1] was 75 to 100%; in [2] it was 0 to 24%; in test [3], 0 to 24%; in test [4], 75 to 100%; in test [11], 0 to 24%; in test [5], 0 to 24%. Also, the inhibition at 11200 g/ha in [6] fell in the range of 50 to 74%; in [7], 0 to 24%; in [9], 0 to 24%; in test [10], 0 to 24%.

Consider `COC(=O)c1c(OC)nc(C(F)(F)F)c(C=O)c1CC(C)C` [Compound 79, 3-pyridinecarboxylic acid, 5-formy1-2-methoxy-4-(2-methylpropyl)-6-(trifluoromethyl)-, methyl ester], for which the inhibition at 11200 g/ha lay in the range of 75 to 100% in [1]; 75 to 100% in test [2]; 0 to 24% in test [3]; 75 to 100% in test [4]; 75 to 100% in [11]; 50 to 74% in [5]. In addition, the inhibition at 11200 g/ha in test [6] lay within 75 to 100%; in [7] it was 75 to 100%; in test [9], 50 to 74%; in [10], 0 to 24%.

As to `COC(=O)c1c(OCC#N)nc(C(F)(F)F)c(C(=O)OC)c1CC(C)C` [Compound 80, 3,5-pyridinedicarboxylic acid, 2-(cyanomethoxy)-4-(2-methylpropyl)-6-(trifluoromethyl)-, dimethyl ester], the inhibition at 11200 g/ha was in the range of 75 to 100% in test [1]; 75 to 100% in test [2]; 25 to 49% in test [3]; 75 to 100% in test [4]; 75 to 100% in test [11]; 75 to 100% in test [5]. Further, the inhibition at 11200 g/ha in [6] is 75 to 100%; in [7], 25 to 49%; in test [9], 75 to 100%; in test [10], 50 to 74%.

Turning to `COC(=O)c1c(OC)nc(C(F)(F)F)c(C(=O)OCCF)c1CC(C)C` [Compound 81, 3,5-pyridinedicarboxylic acid, 2-methoxy-4-(2-methylpropyl)-6-(trifluoromethyl)-, 5-(2-fluoroethyl) 3-methyl ester], the inhibition at 11200 g/ha in [1], in test [2], in test [3], in test [4], in test [11] and in test [5] was 75 to 100% throughout. Also, the inhibition at 11200 g/ha in test [6], in test [7], in [9] and in test [10] was 75 to 100% each time.

Take `C#CCOC(=O)c1c(C(F)(F)F)nc(OC)c(C(=O)OC)c1CC(C)C` [Compound 82, 3,5-pyridinedicarboxylic acid, 2-methoxy-4-(2-methylpropyl)-6-(trifluoromethyl)-, 3-methyl 5-(2-propynyl)ester]: the inhibition at 11200 g/ha fell in the range of 75 to 100% in test [1]; 75 to 100% in [2]; 50 to 74% in [3]; 75 to 100% in [4]; 75 to 100% in test [11]; 75 to 100% in test [5]. Further, the inhibition at 11200 g/ha in [6] is 75 to 100%; in test [7], 50 to 74%; in test [9], 75 to 100%; in [10] it was 25 to 49%.

In the case of `COC(=O)c1c(OC)nc(C(F)(F)F)c(C(=O)Cl)c1CC(C)C` [Compound 84, 3-pyridinecarboxylic acid, 5-(chlorocarbonyl)-2-methoxy-4-(2-methylpropyl)-6-(trifluoromethyl)-, methyl ester], the inhibition at 11200 g/ha in [1] is 75 to 100%; in test [2], 75 to 100%; in [3], 0 to 24%; in test [4], 75 to 100%; in test [11], 75 to 100%; in test [5], 25 to 49%. In addition, the inhibition at 11200 g/ha in test [7], in [8], in [9] and in test [10] was 0 to 24% throughout.

For the molecule `COC(=O)c1c(OC)nc(C(F)(F)F)c(C(=O)OC)c1CBr` [Compound 87, 3,5-pyridinedicarboxylic acid, 4-(bromomethyl)-2-methoxy-6-(trifluoromethyl)-, dimethyl ester], the inhibition at 11200 g/ha in [1] fell in the range of 0 to 24%; in [2], 0 to 24%; in test [3] it was 0 to 24%; in test [4], 50 to 74%; in test [11] it was 0 to 24%; in test [5], 0 to 24%. In addition, the inhibition at 11200 g/ha in test [7], in test [8], in [9] and in test [10] was 0 to 24% in each case.

On to `COCc1c(C(=O)OC)c(OC)nc(C(F)(F)F)c1C(=O)OC` [Compound 88, 3,5-pyridinedicarboxylic acid, 2-methoxy-4-(methoxymethyl)-6-(trifluoromethyl)-, dimethyl ester], for which the inhibition at 11200 g/ha in test [1] lay within 75 to 100%; in test [2], 0 to 24%; in [3], 0 to 24%; in test [4], 50 to 74%; in test [11], 25 to 49%; in test [5], 25 to 49%. Further, the inhibition at 11200 g/ha in test [7] lay within 0 to 24%; in test [8] it was 0 to 24%; in test [9], 25 to 49%; in test [10], 0 to 24%.
